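1) Cells in 96-well plates. 2) Compound, 48 h, 5 concentrations. 3) Linear interpolation between surrounding doses. 4) Unreached endpoint = highest concentration. The concentration for 50% growth inhibition is given as GI50. TGI: concentration producing complete growth inhibition.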
Assays:
Assay in all cases: growth of human tumour cells (NCI), 48 h
786-0 renal = test system: 786-0 renal
A498 renal = test system: A498 renal
A549 NSCLC = test system: A549 NSCLC
ACHN renal = test system: ACHN renal
BT-549 breast = test system: BT-549 breast
CAKI-1 renal = test system: CAKI-1 renal
CCRF-CEM leukemia = test system: CCRF-CEM leukemia
COLO 205 colon = test system: COLO 205 colon
DU-145 prostate = test system: DU-145 prostate
HCC-2998 colon = test system: HCC-2998 colon
HCT-116 colon = test system: HCT-116 colon
HCT-15 colon = test system: HCT-15 colon
HL-60(TB) leukemia = test system: HL-60(TB) leukemia
HOP-62 NSCLC = test system: HOP-62 NSCLC
HOP-92 NSCLC = test system: HOP-92 NSCLC
HS 578T breast = test system: HS 578T breast
HT29 colon = test system: HT29 colon
IGROV1 ovarian = test system: IGROV1 ovarian
K-562 leukemia = test system: K-562 leukemia
KM12 colon = test system: KM12 colon
LOX IMVI melanoma = test system: LOX IMVI melanoma
MCF7 breast = test system: MCF7 breast
MDA-MB-231 breast = test system: MDA-MB-231 breast
MDA-MB-435 = test system: MDA-MB-435
MOLT-4 leukemia = test system: MOLT-4 leukemia
NCI-H226 lung = test system: NCI-H226 lung
NCI-H23 lung = test system: NCI-H23 lung
NCI-H460 lung = test system: NCI-H460 lung
NCI-H522 lung = test system: NCI-H522 lung
NCI/ADR-RES ovarian = test system: NCI/ADR-RES ovarian
OVCAR-3 ovarian = test system: OVCAR-3 ovarian
OVCAR-4 ovarian = test system: OVCAR-4 ovarian
OVCAR-5 ovarian = test system: OVCAR-5 ovarian
OVCAR-8 ovarian = test system: OVCAR-8 ovarian
PC-3 prostate = test system: PC-3 prostate
RPMI-8226 leukemia = test system: RPMI-8226 leukemia
RXF 393 renal = test system: RXF 393 renal
SF-268 CNS = test system: SF-268 CNS
SF-295 CNS = test system: SF-295 CNS
SF-539 CNS = test system: SF-539 CNS
SK-MEL-2 melanoma = test system: SK-MEL-2 melanoma
SK-MEL-28 melanoma = test system: SK-MEL-28 melanoma
SK-MEL-5 melanoma = test system: SK-MEL-5 melanoma
SK-OV-3 ovarian = test system: SK-OV-3 ovarian
SN12C renal = test system: SN12C renal
SNB-19 CNS = test system: SNB-19 CNS
SNB-75 CNS = test system: SNB-75 CNS
SR leukemia = test system: SR leukemia
SW-620 colon = test system: SW-620 colon
T-47D breast = test system: T-47D breast
TK-10 renal = test system: TK-10 renal
U251 CNS = test system: U251 CNS
UACC-257 melanoma = test system: UACC-257 melanoma
UO-31 renal = test system: UO-31 renal

Q: How did the GI50 (786-0 renal) turn out when `CCOC(=O)c1ccccc1NC(c1ccccc1)c1ccc2cccnc2c1O` (stereo not drawn) was run?
A: The GI50 was 3.39 µM.

Q: And the TGI (786-0 renal)?
A: The TGI was greater than 100 µM.

Q: What about the GI50 (A498 renal) of the same molecule?
A: The GI50 was 1.15 µM.

Q: And the TGI (A498 renal)?
A: The TGI was 8.05 µM.

Q: What about the GI50 (A549 NSCLC) of the same molecule?
A: The GI50 was 3.3 µM.

Q: What about the TGI (A549 NSCLC) of the same molecule?
A: The TGI was greater than 100 µM.

Q: And the GI50 (ACHN renal)?
A: The GI50 was 3.07 µM.

Q: And the TGI (ACHN renal)?
A: The TGI was greater than 100 µM.

Q: What about the GI50 (BT-549 breast) of the same molecule?
A: The GI50 was 4.25 µM.

Q: What about the TGI (BT-549 breast) of the same molecule?
A: Its TGI is 16.7 µM.

Q: What about the GI50 (CAKI-1 renal) of the same molecule?
A: Its GI50 is 3.05 µM.

Q: What about the TGI (CAKI-1 renal) of the same molecule?
A: Its TGI is greater than 100 µM.

Q: What about the GI50 (CCRF-CEM leukemia) of the same molecule?
A: Its GI50 is 2.32 µM.

Q: What about the TGI (CCRF-CEM leukemia) of the same molecule?
A: The TGI was greater than 100 µM.

Q: What about the GI50 (COLO 205 colon) of the same molecule?
A: The GI50 was 3.33 µM.

Q: And the TGI (COLO 205 colon)?
A: Its TGI is 24.1 µM.

Q: What about the GI50 (DU-145 prostate) of the same molecule?
A: The GI50 was 5.94 µM.

Q: And the TGI (DU-145 prostate)?
A: Its TGI is greater than 100 µM.

Q: And the GI50 (HCC-2998 colon)?
A: Its GI50 is 5.77 µM.

Q: What about the TGI (HCC-2998 colon) of the same molecule?
A: The TGI was greater than 100 µM.

Q: What about the GI50 (HCT-116 colon) of the same molecule?
A: The GI50 was 3.41 µM.

Q: And the TGI (HCT-116 colon)?
A: Its TGI is 80.1 µM.

Q: And the GI50 (HCT-15 colon)?
A: Its GI50 is 2.11 µM.

Q: What about the TGI (HCT-15 colon) of the same molecule?
A: Its TGI is 23.5 µM.

Q: And the GI50 (HL-60(TB) leukemia)?
A: The GI50 was 1.97 µM.

Q: And the TGI (HL-60(TB) leukemia)?
A: The TGI was 6.63 µM.

Q: What about the GI50 (HOP-62 NSCLC) of the same molecule?
A: The GI50 was 3.31 µM.

Q: And the TGI (HOP-62 NSCLC)?
A: The TGI was greater than 100 µM.

Q: What about the GI50 (HOP-92 NSCLC) of the same molecule?
A: Its GI50 is 7.98 µM.

Q: What about the TGI (HOP-92 NSCLC) of the same molecule?
A: The TGI was greater than 100 µM.

Q: What about the GI50 (HS 578T breast) of the same molecule?
A: Its GI50 is 7.53 µM.

Q: What about the TGI (HS 578T breast) of the same molecule?
A: The TGI was greater than 100 µM.

Q: And the GI50 (HT29 colon)?
A: Its GI50 is 4.58 µM.

Q: What about the TGI (HT29 colon) of the same molecule?
A: The TGI was greater than 100 µM.

Q: What about the GI50 (IGROV1 ovarian) of the same molecule?
A: The GI50 was 4.01 µM.

Q: What about the TGI (IGROV1 ovarian) of the same molecule?
A: The TGI was 24.1 µM.

Q: And the GI50 (K-562 leukemia)?
A: The GI50 was 3.34 µM.

Q: What about the TGI (K-562 leukemia) of the same molecule?
A: Its TGI is greater than 100 µM.

Q: And the GI50 (KM12 colon)?
A: The GI50 was 3.99 µM.

Q: And the TGI (KM12 colon)?
A: The TGI was greater than 100 µM.

Q: What about the GI50 (LOX IMVI melanoma) of the same molecule?
A: The GI50 was 2.45 µM.

Q: What about the TGI (LOX IMVI melanoma) of the same molecule?
A: The TGI was 11 µM.

Q: What about the GI50 (MCF7 breast) of the same molecule?
A: The GI50 was 2.98 µM.

Q: And the TGI (MCF7 breast)?
A: The TGI was 45 µM.

Q: What about the GI50 (MDA-MB-231 breast) of the same molecule?
A: Its GI50 is 5.59 µM.

Q: What about the TGI (MDA-MB-231 breast) of the same molecule?
A: The TGI was 72.7 µM.

Q: And the GI50 (MDA-MB-435)?
A: Its GI50 is 5.41 µM.

Q: And the TGI (MDA-MB-435)?
A: Its TGI is 61.6 µM.

Q: What about the GI50 (MOLT-4 leukemia) of the same molecule?
A: The GI50 was 2.54 µM.

Q: What about the TGI (MOLT-4 leukemia) of the same molecule?
A: The TGI was greater than 100 µM.

Q: And the GI50 (NCI-H226 lung)?
A: Its GI50 is 2.69 µM.

Q: And the TGI (NCI-H226 lung)?
A: Its TGI is 13.9 µM.

Q: And the GI50 (NCI-H23 lung)?
A: The GI50 was 4.22 µM.

Q: And the TGI (NCI-H23 lung)?
A: The TGI was greater than 100 µM.

Q: What about the GI50 (NCI-H460 lung) of the same molecule?
A: The GI50 was 2.82 µM.

Q: And the TGI (NCI-H460 lung)?
A: The TGI was 78.4 µM.

Q: What about the GI50 (NCI-H522 lung) of the same molecule?
A: Its GI50 is 3.36 µM.

Q: What about the TGI (NCI-H522 lung) of the same molecule?
A: Its TGI is 11.6 µM.

Q: What about the GI50 (NCI/ADR-RES ovarian) of the same molecule?
A: The GI50 was 2.78 µM.

Q: And the TGI (NCI/ADR-RES ovarian)?
A: Its TGI is 21.4 µM.

Q: What about the GI50 (OVCAR-3 ovarian) of the same molecule?
A: The GI50 was 3.85 µM.

Q: What about the TGI (OVCAR-3 ovarian) of the same molecule?
A: Its TGI is 23.4 µM.

Q: And the GI50 (OVCAR-4 ovarian)?
A: The GI50 was 3.21 µM.

Q: And the TGI (OVCAR-4 ovarian)?
A: The TGI was greater than 100 µM.

Q: And the GI50 (OVCAR-5 ovarian)?
A: The GI50 was 8.64 µM.

Q: And the TGI (OVCAR-5 ovarian)?
A: The TGI was greater than 100 µM.

Q: What about the GI50 (OVCAR-8 ovarian) of the same molecule?
A: Its GI50 is 3.31 µM.

Q: And the TGI (OVCAR-8 ovarian)?
A: The TGI was 52.2 µM.

Q: And the GI50 (PC-3 prostate)?
A: Its GI50 is 5.13 µM.

Q: And the TGI (PC-3 prostate)?
A: The TGI was greater than 100 µM.

Q: What about the GI50 (RPMI-8226 leukemia) of the same molecule?
A: The GI50 was 3.06 µM.

Q: What about the TGI (RPMI-8226 leukemia) of the same molecule?
A: Its TGI is greater than 100 µM.

Q: And the GI50 (RXF 393 renal)?
A: Its GI50 is 3.11 µM.

Q: What about the TGI (RXF 393 renal) of the same molecule?
A: Its TGI is 23.2 µM.

Q: And the GI50 (SF-268 CNS)?
A: Its GI50 is 3.14 µM.

Q: What about the TGI (SF-268 CNS) of the same molecule?
A: The TGI was 29 µM.

Q: And the GI50 (SF-295 CNS)?
A: The GI50 was 3.24 µM.

Q: What about the TGI (SF-295 CNS) of the same molecule?
A: Its TGI is greater than 100 µM.

Q: What about the GI50 (SF-539 CNS) of the same molecule?
A: Its GI50 is 2.52 µM.

Q: What about the TGI (SF-539 CNS) of the same molecule?
A: The TGI was 10.2 µM.

Q: What about the GI50 (SK-MEL-2 melanoma) of the same molecule?
A: Its GI50 is 3.74 µM.

Q: And the TGI (SK-MEL-2 melanoma)?
A: The TGI was 45.1 µM.

Q: And the GI50 (SK-MEL-28 melanoma)?
A: Its GI50 is 3.19 µM.

Q: What about the TGI (SK-MEL-28 melanoma) of the same molecule?
A: Its TGI is greater than 100 µM.

Q: And the GI50 (SK-MEL-5 melanoma)?
A: Its GI50 is 2.04 µM.

Q: And the TGI (SK-MEL-5 melanoma)?
A: Its TGI is 6.74 µM.

Q: And the GI50 (SK-OV-3 ovarian)?
A: The GI50 was 3.64 µM.

Q: And the TGI (SK-OV-3 ovarian)?
A: The TGI was 56.4 µM.

Q: And the GI50 (SN12C renal)?
A: Its GI50 is 3.83 µM.

Q: What about the TGI (SN12C renal) of the same molecule?
A: Its TGI is greater than 100 µM.

Q: What about the GI50 (SNB-19 CNS) of the same molecule?
A: Its GI50 is 2.83 µM.

Q: And the TGI (SNB-19 CNS)?
A: The TGI was greater than 100 µM.

Q: And the GI50 (SNB-75 CNS)?
A: Its GI50 is 2.6 µM.

Q: And the TGI (SNB-75 CNS)?
A: Its TGI is 89.8 µM.

Q: And the GI50 (SR leukemia)?
A: The GI50 was 2.02 µM.

Q: What about the TGI (SR leukemia) of the same molecule?
A: Its TGI is 10.3 µM.

Q: And the GI50 (SW-620 colon)?
A: Its GI50 is 3.89 µM.

Q: And the TGI (SW-620 colon)?
A: Its TGI is greater than 100 µM.

Q: And the GI50 (T-47D breast)?
A: Its GI50 is 4.22 µM.

Q: What about the TGI (T-47D breast) of the same molecule?
A: The TGI was greater than 100 µM.

Q: What about the GI50 (TK-10 renal) of the same molecule?
A: The GI50 was 5.52 µM.

Q: And the TGI (TK-10 renal)?
A: The TGI was greater than 100 µM.

Q: And the GI50 (U251 CNS)?
A: The GI50 was 2.75 µM.

Q: And the TGI (U251 CNS)?
A: Its TGI is 16.5 µM.

Q: And the GI50 (UACC-257 melanoma)?
A: Its GI50 is 2.98 µM.

Q: What about the TGI (UACC-257 melanoma) of the same molecule?
A: Its TGI is 21.5 µM.

Q: And the GI50 (UO-31 renal)?
A: Its GI50 is 2.03 µM.

Q: What about the TGI (UO-31 renal) of the same molecule?
A: The TGI was greater than 100 µM.
